The source of these data is patent US20230321188A1, “AUTOPHAGY INDUCING PEPTIDES” (TRANSLATIONAL HEALTH SCIENCE AND TECHNOLOGY INSTITUTE, priority 2020, published 2023).

For assay [1], the system named is S. typhimurium. Format: cell-based. Particulars: 24 h.
For assay [2], the system named is mTOR. The assay is described as follows: mTOR independent activation of autophagy: western blot of S6Kinase / 4E-BP1 phosphorylation. It counts as cell-based. To be noted: Huh7 cells, peptides 10 μM, 6 h. As for the experimental part:
FIG. 5 depicts mTOR independent activation of autophagy Huh7 cells were treated with peptides (10 μM) and torin1 (1 μM) for 6 h and lysed in lysis buffer (1mM EDTA, 20 mM Tris-HCl pH 7.4, 250 mM NaCl, PMSF, and PI). Western blot was performed by GAPDH (internal control), […] and S6K1 antibodies. The peptides were tested for inhibition of mTOR by testing for phosphorylation of enzyme p70S6K. The phosphorylation of p-p70S6K at threonine 389 has been used as a hallmark of activation by mTOR.
Huh7/HeLa cells were treated with peptides 10 μM for 6 h and protein lysates were analysed by western blotting using pS6Kinase, S6Kinase, p-4E-BP1, 4E-BP1 and GAPDH antibodies. Torin 1 was used as positive control.
In general terms: A western blot detects proteins with antibodies after separation by electrophoresis.

Assay [3] concerns S. typhimurium (strain Xen33). As to the kind of experiment: In vivo S. typhimurium (Xen33) infection and disease progression in FVB mice. As for the experimental part: For the in vivo studies, mouse S. typhimurium (strain Xen33) infection carried out as per the previous protocol of Griffin et al., 2011. In brief, mice were pre-treated with streptomycin. Water and food were withdrawn before 4hours of infection. For the experiments, 6-8 weeks of FVB male mice were utilized in a group of 5. Mice related experiments and its maintenance were carried out in a small animal facility at THSTI, Faridabad. […] FVB mice were infected orally with Xen-33(S. typhimurium) and its bioluminescence was measured by in vivo imaging with IVIS Lumina (Perkin Elmer) and quantified with living image software version 4.2. Bioluminescent levels were measured as radiance (p/sec/cm^2/sr), by using a pseudo scale for measurement in which blue represents low intensity and red represents high intensity. Posts in vivo imaging, the bacterial burden in faecal sample were also measured.
Mice having Salmonella typhimurium infection or non-infected were sacrificed and their intestine was removed for immunohistochemistry studies. Intestines were washed with PBS and fixed in 10% formaldehyde. Thereafter, fine-sectioned on a microtome. Tissue blocks were prepared on Paraffin wax and then hematoxylin and eosin (HE) staining was carried out. The finally stained sections were then observed, and images were acquired by using the Ti Eclipse Nikon microscope. The scoring was done by random scoring by different individuals.
In vivo effect of p7T treatment on S. typhimurium infection and disease progression in FVB mice. Recovery of chronically S. typhimurium infected FVB mice was studied in the presence of P7T&P13T. […] Colon samples were further examined for histological changes. […] The stool was collected, plated on SS agar to determine S. typhimurium colony formation.
(c) In vivo imaging and intensity quantitation of mice infected with S. typhimurium strain (Xen33) expressing luciferase on the 8th day (n=5 mice per group). […] (i) Immunohistochemistry images (40×) showing expression of HIF-1α and its quantification in the colon (n=5). […] Data representative of triplicates and repeated three times each individual experiments*P<0.05, **P <0.01, ***P<0.001, **** P<0.0001, ns, non-significant. (Student's t-test and one-way ANOVA).

For assay [4], the target named is T1, GAPR-1 (UniProt Q9H4G4 2-154, limits assumed).
T1 construct: Purified protein used in MST; also called purified Gapr-1
T1 sequence (looked up): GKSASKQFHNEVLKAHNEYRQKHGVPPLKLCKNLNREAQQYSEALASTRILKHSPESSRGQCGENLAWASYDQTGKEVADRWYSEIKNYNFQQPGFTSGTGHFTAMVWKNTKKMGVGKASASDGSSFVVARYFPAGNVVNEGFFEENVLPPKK
As to the kind of experiment: MicroScale Thermophoresis (MST), peptide titrated on purified Gapr-1; fraction bound against peptide conc. (M) [3A]. (In general: MST reads how a fluorescent partner responds to local heating, with and without ligand.)

In assay [5] the target is T1, GAPR-1. As to the kind of experiment: MicroScale Thermophoresis (MST), purified Gapr-1.
Setting [6] is: FVB mice infected with S. typhimurium.

A word on the Kd: it is the constant that tells how readily two partners part at equilibrium.

Where a SMILES comes first, the peptide text is derived from it.

For `NC(=O)C[C@H](NC(=O)CNC(=O)[C@H](Cc1ccc(O)cc1)NC(=O)[C@@H]1CCCN1)C(=O)N[C@@H](Cc1c[nH]cn1)C(=O)N[C@@H](CO)C(=O)N[C@@H](Cc1ccc(O)cc1)C(=O)O` [P3T] (H-PYGNHSY-OH; N-terminus and C-terminus assumed), in assay [1], the “inhibition of S. typhimurium” value was found to be 49.5%. As to `CC[C@H](C)[C@H](NC(=O)[C@@H](NC(=O)CNC(=O)[C@@H](N)Cc1ccccc1)[C@@H](C)O)C(=O)N[C@@H](CC(N)=O)C(=O)N[C@@H](CC(N)=O)C(=O)N[C@@H](Cc1ccccc1)C(=O)N[C@@H](CCCNC(=N)N)C(=O)N[C@@H](CC(C)C)C(=O)O` [P7T] (H-FGTINNFRL-OH), the “interference with phosphorylation of p70S6K and mTOR activity” value (“interference with phosphorylation” for short) in assay [2] was “did not interfere with the phosphorylation of p70S6K and mTOR activity”. Also, the “bacterial burden in faecal sample / stool” value in assay [3] (FVB mice infected orally with Xen-33, stool plated on SS agar) is “significant decrease in bacterial burden”. In assay [3] (setting [6]), the “length of the colon” value is listed as “significantly reduced in untreated mice compare to P7T” and the splenomegaly entry was “difference in splenomegaly was not observed”. Further, the histopathology score entry in assay [3] (intestine/colon H&E staining, FVB mice infected with S. typhimurium) was “significantly less”.

Regarding `CC(C)C[C@H](NC(=O)CNC(=O)CNC(=O)[C@H](CO)NC(=O)[C@H](CS)NC(=O)[C@H](Cc1ccc(O)cc1)NC(=O)[C@@H](N)CC(C)C)C(=O)N[C@@H](CCCNC(=N)N)C(=O)N[C@@H](Cc1ccccc1)C(=O)N[C@@H](Cc1ccccc1)C(=O)N[C@@H](Cc1c[nH]c2ccccc12)C(=O)N[C@@H](CC(=O)O)C(=O)O` [P8T] (H-LYCSGGLRFFWD-OH), the “inhibition of S. typhimurium” value in assay [1] came out at 62.16%. `CC(C)C[C@H](NC(=O)[C@H](C)NC(=O)[C@H](Cc1c[nH]cn1)NC(=O)[C@H](CC(C)C)NC(=O)[C@H](CC(C)C)NC(=O)[C@H](CC(C)C)NC(=O)[C@@H](NC(=O)[C@@H](NC(=O)[C@@H](N)CCC(N)=O)[C@@H](C)O)C(C)C)C(=O)O` [P9T] (H-QTVLLLHAL-OH): in assay [2], the “interference with phosphorylation” value is “did not interfere with the phosphorylation of p70S6K and mTOR activity”.

As for `CC(C)C[C@H](NC(=O)[C@H](Cc1ccc(O)cc1)NC(=O)[C@H](CO)NC(=O)[C@H](Cc1c[nH]cn1)NC(=O)[C@H](CC(N)=O)NC(=O)CNC(=O)[C@H](Cc1ccc(O)cc1)NC(=O)[C@@H]1CCCN1C(=O)[C@@H](NC(=O)[C@H](CC(C)C)NC(=O)[C@@H](N)CCCNC(=N)N)C(C)C)C(=O)N[C@@H](CCC(=O)O)C(=O)N[C@@H](CO)C(=O)O` [P13T] (H-RLVPYGNHSYLES-OH), the “interference with phosphorylation” value in assay [2] is “did not interfere with the phosphorylation of p70S6K and mTOR activity”.

B1: P3T (peptide)
peptide: PYGNHSY
notes: also called peptide P3T
Regarding B1, in assay [4], binding was characterised by a dissociation constant (Kd) of 210 nM.

B2: P8T (peptide)
peptide: LYCSGGLRFFWD
notes: also called peptide P8T
Take B2: in assay [5], binding was characterised by a dissociation constant (Kd) of 120 nM.

B3: P7T (peptide)
peptide: FGTINNFRL
notes: also called peptide P7T
For B3, the Kd in assay [5] stood at 130 nM.

B4: P13T (peptide)
peptide: RLVPYGNHSYLES
notes: also called peptide P13T
On to B4, for which the Kd in assay [5] stood at 70 nM. Against the preceding molecule, the Kd is about 1.9-fold lower.

B5: P9T (peptide)
peptide: QTVLLLHAL
notes: also called peptide P9T
In turn, B5 gave a dissociation constant Kd in assay [5] of 1560 nM.
